The target of test [1] is human C5a receptor (C5aR) (Homo sapiens (Human), UniProt P21730). Briefly: Inhibition of C5a-C5aR binding (biotinylated human C5a, U937/C5aR cells, FACS). The procedure: U937 cells were originally obtained from the American Type Culture Collection (ATCC) and transfected with human C5a receptor (C5aR). U937/C5aR cells were cultured at 37° C., 5% CO2 in RPMI1640 (Gibco) supplemented with 10% FBS (Gibco) and 350 µg/ml Geneticin (Gibco) and passaged every 3 days to maintain the density range from […] to 2×10^6 cells/ml.
Human C5a biotinylation was performed according to the procedure provided by manufacturer (Thermo Scientific, A39257). 10 mM solution of Sulfo-NHS-LC-Biotin was prepared by adding 180μl ultrapure H2O to the 1 mg vial immediately. 12 μl 10 mM biotin reagent was added to […] human C5a solution, gently pipetted for 3 seconds, and incubated on ice for 2 hours. Amicon ultra-0.5 centrifuge filter device (Millipore, UFC5003BK) was pre-rinsed with Milli-Q H2O, centrifuged at 14000 g for 5 min immediately before use. Up to […] sample (diluted by PBS) was added to the device and capped. The device was spinned at 14000 g for approximately 5 min. 250 μl PBS was added to the filter device, spinned at 14000 g for 5 min, and repeatedly washed 6 times. The filter device was separated from the microcentrifuge tube and placed upside down in a clean microcentrifuge tube, spinned for 2 min at 1000 g to transfer the concentrated sample from the device to the tube.
U937/C5aR cells were collected and washed twice by PBS, cells were suspended in PBS+0.1% BSA buffer at the density of 3×10^6 cells/ml. 100 μl cell suspension was added to a 96 well microplate. 50 μl compound diluted in assay buffer and 50 μl biotinylated ligand human C5a (30 nM) were added to corresponding wells in order and the plate was incubated on ice for 120 min and then centrifuged at 1000 rpm for 3-5 min at 4° C. Supernatant was removed and cells were washed by pre-cold PBS twice. 100 μl FITC conjugated streptavidin was added to cells, incubated on ice for another 30 min, and then centrifuged at 1000 rpm for 3-5 min at 4° C. Supernatant was removed and cells were washed by pre-cold PBS twice. 150 μl PBS was added to suspend the cells and signals were detected by FACS (Beckman, Cytoflex).

For a further test, the target named is C5aR (Homo sapiens (Human), UniProt P21730). The test is described as follows: Calcium mobilization (U937/C5aR or HEK293/C5aR cells, FLIPR). The test is classed as cell-based. To be noted: agonist human C5a at EC80, FLIPR. The method, boiled down:
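FLIPR calcium-flux read-out using Fluo-4 Direct-loaded C5aR-expressing U937 or HEK293 cells stimulated with human C5a at its EC80. Compound was applied for 60 min before dye loading (50 min at 37 °C plus 10 min at room temperature) and agonist addition.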
In general terms: A change in cytosolic calcium serves as a functional read-out for many receptors and channels.

Sequence of human C5a receptor (C5aR) (P21730 whole entry): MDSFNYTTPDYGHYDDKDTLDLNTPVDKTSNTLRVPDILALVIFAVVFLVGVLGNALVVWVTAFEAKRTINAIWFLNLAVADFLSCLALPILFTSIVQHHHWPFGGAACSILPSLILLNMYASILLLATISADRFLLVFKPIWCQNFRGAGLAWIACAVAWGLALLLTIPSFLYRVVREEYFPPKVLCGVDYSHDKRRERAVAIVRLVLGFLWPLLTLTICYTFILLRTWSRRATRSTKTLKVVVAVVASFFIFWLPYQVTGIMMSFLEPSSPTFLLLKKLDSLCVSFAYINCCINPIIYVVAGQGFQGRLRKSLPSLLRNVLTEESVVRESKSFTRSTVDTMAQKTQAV
Sequence of C5aR (P21730 whole entry): as above

For orientation: IC50 means the point on the concentration scale where inhibition reaches its midpoint. On to `Cc1cccc(F)c1C(=O)N1[C@@H]2CCC[C@@H]2C[C@H](C(=O)Nc2ccc(F)c(C(F)(F)F)c2)[C@@H]1c1ccc(NC2CCCC2)cc1` (relative stereo) [Compound 61, cis-2-(4-(cyclopentylamino)phenyl)-N-(4-fluoro-3-(trifluoromethyl)phenyl)-1-(2-fluoro-6-methylbenzoyl)octahydro-1H-cyclopenta[b]pyridine-3-carboxamide], for which the figures for the IC50 (in test [1]; on C5aR) were 2 to 5 µM and 2 to 10 µM, respectively.
In the same order, the values of `Cc1cccc(F)c1C(=O)N1[C@@H]2CCC[C@@H]2C[C@H](C(=O)Nc2ccc(F)c(F)c2)[C@@H]1c1ccc(NC2CCCC2)cc1` (relative stereo) [Compound 65, cis-2-(4-(cyclopentylamino)phenyl)-N-(3,4-difluorophenyl)-1-(2-fluoro-6-methylbenzoyl)octahydro-1H-cyclopenta[b]pyridine-3-carboxamide] are 0.05 to 0.5 µM and 0.05 to 0.5 µM.
With `Cc1ccc(NC(=O)C2C[C@@H]3CCC[C@@H]3N(C(=O)c3c(C)cccc3F)C2c2ccc(NC3CCCC3)cc2)cc1P(C)(C)=O` (relative stereo) [Compound 76, cis-2-(4-(cyclopentylamino)phenyl)-N-(3-(dimethylphosphoryl)-4-methylphenyl)-1-(2-fluoro-6-methylbenzoyl)octahydro-1H-cyclopenta[b]pyridine-3-carboxamide], the IC50 in test [1] is 2 to 5 µM; on C5aR, 2 to 10 µM.
In the same order, the values of `Cc1cccc(F)c1C(=O)N1C2CCC[C@@H]2C[C@H](C(=O)Nc2ccnc(C(F)(F)F)c2)[C@@H]1c1ccc(NC2CCCC2)cc1` (relative stereo) [Compound 79, cis-2-(4-(cyclopentylamino)phenyl)-1-(2-fluoro-6-methylbenzoyl)-N-(2-(trifluoromethyl)pyridin-4-yl)octahydro-1H-cyclopenta[b]pyridine-3-carboxamide] are 2 to 5 µM and 2 to 10 µM.
In the case of `Cc1ccc(NC(=O)C2C[C@H]3CCC[C@H]3N(C(=O)c3cn(C)cn3)C2c2ccc(NC3CCCC3)cc2)cc1C(F)(F)F` (relative stereo) [Compound 113, cis-2-(4-(cyclopentylamino)phenyl)-1-(1-methyl-1H-imidazole-4-carbonyl)-N-(4-methyl-3-(trifluoromethyl)phenyl)octahydro-1H-cyclopenta[b]pyridine-3-carboxamide], the IC50 in test [1] is 2 to 5 µM; at C5aR, more than 10 µM.
Turning to `Cc1cccc(F)c1C(=O)N1C2COC[C@@H]2C[C@H](C(=O)Nc2ccccc2)[C@@H]1c1ccc(NC2CCOCC2)cc1` (relative stereo) [Compound 129, cis-1-(2-fluoro-6-methylbenzoyl)-N-phenyl-2-(4-((tetrahydro-2H-pyran-4-yl)amino)phenyl)octahydrofuro[3,4-b]pyridine-3-carboxamide], the IC50 in test [1] was 2 to 5 µM; at C5aR, 2 to 10 µM.
Turning to `Cc1cccc(F)c1C(=O)N1C(c2ccc(NC3CCCC3)cc2)C(C(=O)Nc2ccc3c(c2)CCNC3)C[C@@H]2CCC[C@@H]21` (relative stereo) [Compound 184, cis-2-(4-(cyclopentylamino)phenyl)-1-(2-fluoro-6-methylbenzoyl)-N-(1,2,3,4-tetrahydroisoquinolin-6-yl)octahydro-1H-cyclopenta[b]pyridine-3-carboxamide], the IC50 in test [1] fell in the range of 2 to 5 µM; at C5aR, 2 to 10 µM.
For `Cc1cccc(F)c1C(=O)N1C(c2ccc(N(C)C3CCCC3)cc2)C(C(=O)Nc2ccc3c(c2)CCN(C)C3)C[C@@H]2CCC[C@@H]21` (relative stereo) [Compound 201, cis-2-(4-(cyclopentyl(methyl)amino)phenyl)-1-(2-fluoro-6-methylbenzoyl)-N-(2-methyl-1,2,3,4-tetrahydroisoquinolin-6-yl)octahydro-1H-cyclopenta[b]pyridine-3-carboxamide], the concentration for half-maximal inhibition (IC50) is more than 5 µM in test [1] and 2 to 10 µM at C5aR.
In the same order, the values of `Cc1ccc(NC(=O)[C@H]2CCCN(c3ccnc(Cl)n3)[C@H]2c2ccc(NC3CCCC3)cc2)cc1C(F)(F)F` [Compound 2, (2R,3S)-1-(2-chloropyrimidin-4-yl)-2-(4-(cyclopentylamino)phenyl)-N-(4-methyl-3-(trifluoromethyl)phenyl)piperidine-3-carboxamide] are 2 to 5 µM and 2 to 10 µM.
In the same order, the values of `Cc1ccc(NC(=O)[C@H]2CCCN(c3ccncn3)[C@H]2c2ccc(NC3CCCC3)cc2)cc1C(F)(F)F` [Compound 4, (2R,3S)-2-(4-(cyclopentylamino)phenyl)-N-(4-methyl-3-(trifluoromethyl)phenyl)-1-(pyrimidin-4-yl)piperidine-3-carboxamide] are 2 to 5 µM and 2 to 10 µM.
The matching figures for `Cc1ccc(NC(=O)[C@H]2CCCN(c3nccc4cccnc34)[C@H]2c2ccc(NC3CCCC3)cc2)cc1C(F)(F)F` [Compound 6, (2R,3S)-2-(4-(cyclopentylamino)phenyl)-N-(4-methyl-3-(trifluoromethyl)phenyl)-1-(1,7-naphthyridin-8-yl)piperidine-3-carboxamide]: 0.5 to 2 µM and 2 to 10 µM.
With `Cc1ccc(NC(=O)[C@@H]2CCCN(c3ncnc4cccnc34)[C@H]2c2ccc(NC3CCCC3)cc2)cc1C(F)(F)F` [Compound 7, (2R,3R)-2-(4-(cyclopentylamino)phenyl)-N-(4-methyl-3-(trifluoromethyl)phenyl)-1-(pyrido[3,2-d]pyrimidin-4-yl)piperidine-3-carboxamide], the results for the IC50 (in test [1]; at C5aR) were 2 to 5 µM and 2 to 10 µM, respectively.
On to `Cc1ccc(NC(=O)[C@H]2CCCN(S(=O)(=O)c3c(C)noc3C)[C@H]2c2ccc(NC3CCCC3)cc2)cc1C(F)(F)F` [Compound 8, (2R,3S)-2-(4-(cyclopentylamino)phenyl)-1-((3,5-dimethylisoxazol-4-yl)sulfonyl)-N-(4-methyl-3-(trifluoromethyl)phenyl)piperidine-3-carboxamide], for which the half-inhibitory concentration (IC50) in test [1] lay in the range of 2 to 5 µM; on C5aR, 2 to 10 µM.
Regarding `Cc1ccc(S(=O)(=O)N2CCC[C@H](C(=O)Nc3ccc(C)c(C(F)(F)F)c3)[C@@H]2c2ccc(NC3CCCC3)cc2)c(C)c1` [Compound 9, (2R,3S)-2-(4-(cyclopentylamino)phenyl)-1-((2,4-dimethylphenyl)sulfonyl)-N-(4-methyl-3-(trifluoromethyl)phenyl)piperidine-3-carboxamide], the IC50 in test [1] was in the range of 2 to 5 µM; on C5aR it was 2 to 10 µM.
Regarding `Cc1ccc(C)c(S(=O)(=O)N2CCC[C@H](C(=O)Nc3ccc(C)c(C(F)(F)F)c3)[C@@H]2c2ccc(NC3CCCC3)cc2)c1` [Compound 10, (2R,3S)-2-(4-(cyclopentylamino)phenyl)-1-((2,5-dimethylphenyl)sulfonyl)-N-(4-methyl-3-(trifluoromethyl)phenyl)piperidine-3-carboxamide], the IC50 in test [1] was 0.5 to 2 µM; on C5aR, more than 10 µM.
In the same order, the values of `Cc1ccc(NC(=O)[C@H]2CCCN(S(=O)(=O)c3c(C)cccc3C)[C@H]2c2ccc(NC3CCCC3)cc2)cc1C(F)(F)F` [Compound 11, (2R,3S)-2-(4-(cyclopentylamino)phenyl)-1-((2,6-dimethylphenyl)sulfonyl)-N-(4-methyl-3-(trifluoromethyl)phenyl)piperidine-3-carboxamide] are 0.5 to 2 µM and 2 to 10 µM.
The matching figures for `Cc1cc(C)c(S(=O)(=O)N2CCC[C@H](C(=O)Nc3ccc(C)c(C(F)(F)F)c3)[C@@H]2c2ccc(NC3CCCC3)cc2)c(C)c1` [Compound 13, (2R,3S)-2-(4-(cyclopentylamino)phenyl)-1-(mesitylsulfonyl)-N-(4-methyl-3-(trifluoromethyl)phenyl)piperidine-3-carboxamide]: 2 to 5 µM and 2 to 10 µM.
For `Cc1ccc(NC(=O)[C@H]2CCCN(S(=O)(=O)c3ccccc3[N+](=O)[O-])[C@H]2c2ccc(NC3CCCC3)cc2)cc1C(F)(F)F` [Compound 14, (2R,3S)-2-(4-(cyclopentylamino)phenyl)-N-(4-methyl-3-(trifluoromethyl)phenyl)-1-((2-nitrophenyl)sulfonyl)piperidine-3-carboxamide], the IC50 is 2 to 5 µM in test [1] and 2 to 10 µM on C5aR.
In the same order, the values of `Cc1ccc(NC(=O)[C@H]2CCCN(S(=O)(=O)c3ccc(F)cc3C)[C@H]2c2ccc(NC3CCCC3)cc2)cc1C(F)(F)F` [Compound 15, (2R,3S)-2-(4-(cyclopentylamino)phenyl)-1-((4-fluoro-2-methylphenyl)sulfonyl)-N-(4-methyl-3-(trifluoromethyl)phenyl)piperidine-3-carboxamide] are 2 to 5 µM and 2 to 10 µM.
